# Measured values reported in US20230018014A1, “NOVEL COMPOUNDS AND FORMULATIONS” (PRO-AL MEDICO-TECHNOLOGIES, INC., priority 2019, published 2023).
# Tests used:
# neonatal cardiomyocytes [1] = assay: ATP-bioluminescence assay in isolated neonatal cardiomyocytes under hypoxia; type: cell-based; conditions: 4% oxygen, 5% CO2, 37° C., 24 hours
# Procedure: (§1) This study aimed to investigate the positive protective role of T3, T3 nanoparticles and nanoparticles of T3 and phosphocreatine (PCR) in hypoxia-mediated cardiac cell insults, as well as its influences on vascularization and neuronal protection, under hypoxic condition. […] Mitochondrial function and sarcomere integrity were studied using an ATP-bioluminescence assay, and cardiac Troponin T levels using flow cytometry, respectively.
# (§2) The cells were cultured in a hypoxia incubator with 4% oxygen, 5% CO2 at 37° C. for 24 hours. Following incubation, the cells were collected and compared with those of normal condition. Mitochondrial function and sarcomere integrity were studied using an ATP-bioluminescence assay, and cardiac Troponin T levels using flow cytometry after adding troponin T antibody conjugated with FITC.
# [2] = test system: T3-induced cells (HS5) and PC12 neuronal cells; assay: LDH release assay in T3-induced cells (HS5) and PC12 neuronal cells under hypoxia (Example 6); type: cell-based; conditions: hypoxia 24 hours; Epinephrine 0.5 μM
# Procedure: (§3) The cells were then cultured under hypoxia for 24 hours. Results using ATP-bioluminescence and LDH release assays.
# swine = assay: porcine cardiac arrest model; type: in vivo
# Procedure: In this study, swine were subjected to 7 minutes of cardiac arrest followed by manual CPR for up to 20 minutes with defibrillation every 2 minutes as necessary. […] In animals that achieved ROSC (unassisted systolic BP>80 mmHg for 1 min), further pharmacologic support was limited to 1 additional dose of the selected drug for hypotension. Hemodynamics, left ventricular (LV) function, plasma cardiac troponin I (cTnl) and other parameters were assessed at baseline and for up to 4 hours post-ROSC.
# neonatal cardiomyocytes [3] = assay: neonatal cardiomyocyte contraction under normoxic and hypoxic condition; type: cell-based
# [4] = test system: T3-induced cells (HS5) and PC12 neuronal cells; assay: ATP-bioluminescence in T3-induced cells (HS5) and PC12 neuronal cells under hypoxia (Example 6); type: cell-based; conditions: hypoxia 24 hours; Epinephrine 0.5 μM
# Procedure: as §3
# neonatal cardiomyocytes [5] = assay: cardiac Troponin T levels by flow cytometry in neonatal cardiomyocytes under hypoxia; type: cell-based; conditions: 4% oxygen, 5% CO2, 37° C., 24 hours
# Procedure: as §1, §2
# [6] = test system: Neuron-Specific Enolase (NSE); assay: Neuron-Specific Enolase ELISA in pig blood plasma after cardiac arrest and resuscitation; type: in vivo; conditions: 2 hours post-ROSC
# Procedure: The blood samples were collected from pigs subjected to cardiac arrest and resuscitation as described in Example 7. […] At 2 hours post-ROSC, blood samples were collected from a peripheral vein into tubes with EDTA and centrifuged for 15 minutes. The plasma samples were then used for the NSE assay based on the manufacturer's instructions.
# [7] = test system: chick embryo chorioallantoic membrane (CAM); assay: chick embryo chorioallantoic membrane (CAM) angiogenesis model; type: in vivo
# From the text: as §1
# [8] = within the first 5 minutes post-ROSC
molecule,measurement,setting,value
CNC[C@H](O)c1ccc(O)c(O)c1 [Epinephrine],cardiac ATP levels (in words),neonatal cardiomyocytes [1],close to untreated hypoxic cardiomyocytes
same,LDH levels (in words),[2],showed an increase
same,higher concentration of cTnl,"swine; post-ROSC, versus the nanoparticle groups",2 fold
same,rate of ROSC (in words),"swine; swine, 7 minutes of cardiac arrest, intravenous, nanoparticles 0.125 mg/kg, Epinephrine 0.015 mg/kg",higher
same,survival duration,"swine; swine, post-ROSC, up to 4 hours, nanoparticles 0.125 mg/kg, Epinephrine 0.015 mg/kg",116 ± 26 min
same,coronary sinus PCO2 compared to vehicle (in words),swine; [8],not
same,coronary sinus pH compared to vehicle (in words),swine; [8],not
same,Contraction/min,neonatal cardiomyocytes [3]; hypoxia,28 min⁻¹
same,Rhythm,neonatal cardiomyocytes [3]; hypoxia,Irregular
same,Contraction/min,neonatal cardiomyocytes [3]; normoxia,186 min⁻¹
same,Rhythm,neonatal cardiomyocytes [3]; normoxia,Regular
same,ATP levels (in words),[4],increased slightly
same,Troponin T levels (in words),neonatal cardiomyocytes [5],close to untreated hypoxic cardiomyocytes
same,increase of NSE over baseline,[6],64%
"N[C@@H](Cc1cc(I)c(Oc2ccc(O)c(I)c2)c(I)c1)C(=O)O [T3, triiodothyronine]",enhanced angiogenesis compared to the control group,[7],~3 fold
same,Branch points (SEM),[7]; 10 μg,158.4 ± 5.5
same,improvement in observed branch points in comparison with bFGF,"[7]; T3 10 μg, Nano-T3 1 μg",37%
same,contraction levels in cardiomyocytes (in words),neonatal cardiomyocytes [3]; hypoxia,close to those of the cells under normal conditions
"bFGF: basic fibroblast growth factor, positive comparator in the CAM model",Branch points (SEM),"[7]; bFGF, dose not given",115.4 ± 3.2
